The source of these data is patent US9422262B2, “Compounds and methods for treating diseases mediated by protease activated receptors” (The Broad Institute, Inc., priority 2010, dated 2016).

One assay concerns cAMP production. The assay is described as follows: cAMP production in washed platelets (competitive immunoassay). It counts as cell-based, human. Particulars: 10 μM, PGE1 as control. The method, then:
For this assay, platelets obtained from individual donors were washed and incubated with the probe. Platelets exposed to PGE1 (which causes elevation of platelet cAMP levels) are used as controls. Following incubation, platelets are lysed and evaluated in a commercially available competitive immunoassay of cAMP. Compounds that raise cAMP levels less than 50% of that of PGE1 are considered negative in this assay.
Background: Changes in cAMP serve as a functional read-out for many G protein-coupled receptors.

In a further assay the test system is thrombus formation. Nature of the assay: Thrombus formation following laser-induced injury of the cremaster arteriole in mice. It is filed as in vivo. An excerpt:
PAR1 is the thrombin receptor on human platelets and serves an important function in mediating thrombus formation. We tested compound 1 to determine whether it inhibited thrombus formation following laser-induced injury of the cremaster arteriole in mice. The dominant PAR receptor on mouse platelets is PAR4. However, since compound 1 acts at a non-orthosteric site and mouse PAR4 differs from human PAR4, we reasoned that compound 1 may be able to block mouse PAR4. […] When infused into mice at a concentration of 5 mg/kg, compound 1 inhibited platelet accumulation during thrombus formation by >90% (FIG. 4B). Infusion of 5 mg/kg also impaired fibrin generation during thrombus formation (FIG. 4C). Thus, compound 1 blocks both cellular- and coagulation protein-mediated arms of thrombus formation. […] The compound was therefore infused every 30 minutes during the course of these experiments. The short half-life of compound 1 in vivo may be useful in scenarios in which anticoagulation is only required for a short period of time or when anticoagulation needs to be reversed quickly, such as anticoagulation prior to invasive procedures or surgery.
Since there are also situations in which longer term anticoagulation is desired, we performed further studies in the thrombus formation model to assess analogs of compound 1 that may have a more long-lived effect. […] This instability in mouse plasma may have contributed to its short half-life of efficacy in vivo.

The subject of another assay is Gαq-mediated Ca2+ flux. Nature of the assay: SFLLRN-induced Gαq-mediated Ca2+ flux in MDCK cells. It counts as cell-based. Particulars: FIG. 3C. An excerpt:
This pattern of inhibition is consistent with that of an allosteric inhibitor. […] This observation raised the possibility that compound 1 blocks PAR1 signaling through Gαq (which mediates platelet aggregation downstream of PAR1), but not Gα12/13 (which mediates shape change downstream of PAR1). A previously identified PAR1 inhibitor, 3,5-difluoro aminoisoxazole (3,5-DFAI), inhibited both shape change and aggregation. Shape change that occurred in the presence of compound 1 was blocked by the Rho kinase inhibitor Y27632, confirming participation of Rho kinase downstream of Gα12/13 in compound-1-resistance shape change (FIG. 3A). […] PAR1-mediated decrease in TER in these cells is dependent on Gα12. […] In contrast, 3,5-DFAI inhibited SFLLRN-mediated decrease in TER (FIG. 3B) and compound 1 inhibited Gαq-mediated Ca^2+ flux in these MDCK cells (FIG. 3C).
(In general: Calcium flux is commonly read through the fluorescence of an indicator in the cells.)

A further assay deals with T1, mouse PAR4 (Mus musculus, UniProt O88634).
T1 construct: Aggregation studies using mouse platelets; endogenous in cells; host or cells: mouse platelets
T1 sequence (O88634 17-396): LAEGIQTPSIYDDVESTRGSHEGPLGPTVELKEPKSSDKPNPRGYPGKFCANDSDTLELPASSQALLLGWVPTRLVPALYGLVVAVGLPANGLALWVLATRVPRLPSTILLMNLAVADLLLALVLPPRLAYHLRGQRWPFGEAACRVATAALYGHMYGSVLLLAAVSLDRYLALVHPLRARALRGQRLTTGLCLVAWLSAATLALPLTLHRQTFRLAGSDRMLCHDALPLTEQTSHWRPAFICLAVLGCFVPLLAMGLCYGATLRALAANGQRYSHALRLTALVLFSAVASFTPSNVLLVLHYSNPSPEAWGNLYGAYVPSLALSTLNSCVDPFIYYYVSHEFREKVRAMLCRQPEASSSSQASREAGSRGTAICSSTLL
The assay is described as follows: PAR4-mediated aggregation of mouse platelets. It is filed as cell-based. To be noted: FIG. 4A.

The next assay deals with platelets. Nature of the assay: P-selectin surface expression on platelets activated with other platelet agonists. Particulars: FIG. 1A. It counts as cell-based, human. The method, then: (§1) To confirm the specificity of compound 1 for PAR1, platelets were incubated with compound 1 and subsequently activated with a variety of platelet agonists. P-selectin surface expression was monitored to detect platelet activation. […] In contrast, an IC50 for inhibition of other agonists was not reached even at concentrations >30-fold its IC50 for PAR1-mediated secretion. To further evaluate whether PAR1 is the target of compound 1, we tested the ability of the compound to inhibit Ca^2+ flux in HEK293 cells overexpressing recombinant PAR1.

The next assay concerns permeabilized platelets. The assay is described as follows: GTP-γ-S induced P-selectin surface expression in permeabilized platelets. It is filed as cell-based, human. Particulars: FIG. 1C. The procedure: as §1

`CCCC(=O)Nc1cccc(NC(=O)c2ccccc2Br)c1` [Compound 1]: in the assay with cAMP production, the “modulation of cAMP production” value is “inactivity”. The “inhibition of platelet accumulation during thrombus formation” value in the assay on thrombus formation (5 mg/kg infused every 30 minutes, FIG. 4B) is more than 90%. The “fibrin generation during thrombus formation” value in the assay with thrombus formation (infusion of 5 mg/kg, FIG. 4C) is “impaired”. Further, the “Gαq-mediated Ca2+ flux” value in the assay on Gαq-mediated Ca2+ flux is listed as “inhibited”. For the same compound, at mouse PAR4, the “PAR4-mediated aggregation of mouse platelets” value is “inhibits”. In the assay with platelets, the “concentration tested without reaching an IC50 for other agonists, relative to IC50 for PAR1-mediated secretion” value is reported as more than 30 fold. Further, the “IC50 for inhibition of other agonists” value with platelets (P-selectin surface expression) was “not reached”. Further, the “P-selectin surface expression induced by GTP-γ-S” value in the assay on permeabilized platelets is on record as “fails to inhibit”.
